ChEMBL document CHEMBL1152994, “Plasmid-mediated carbapenem-hydrolyzing beta-lactamase KPC-2 in Klebsiella pneumoniae isolate from Greece” (2008)
In brackets after ≈: the same amount, converted by molar mass.

Assays:
Escherichia coli [1] = experiment: Antibacterial activity against Escherichia coli J53 expressing Klebsiella pneumoniae Greece blaKPC-2 gene by E test method; format: functional
Escherichia coli [2] = experiment: Antibacterial activity against Escherichia coli J53 by E test method; format: functional
Klebsiella pneumoniae = experiment: Antibacterial activity against Klebsiella pneumoniae Greece producing KPC-2 beta-lactamase by E test method; format: functional
[3] = biological target: T1, Class A carbapenemase (Klebsiella pneumoniae) (UniProt A9LM97); experiment: Activity at Klebsiella pneumoniae Greece Carbapenem-Hydrolyzing-Lactamase KPC-2 assessed per mg of total protein by spectrophotometrically
T1 sequence (whole entry): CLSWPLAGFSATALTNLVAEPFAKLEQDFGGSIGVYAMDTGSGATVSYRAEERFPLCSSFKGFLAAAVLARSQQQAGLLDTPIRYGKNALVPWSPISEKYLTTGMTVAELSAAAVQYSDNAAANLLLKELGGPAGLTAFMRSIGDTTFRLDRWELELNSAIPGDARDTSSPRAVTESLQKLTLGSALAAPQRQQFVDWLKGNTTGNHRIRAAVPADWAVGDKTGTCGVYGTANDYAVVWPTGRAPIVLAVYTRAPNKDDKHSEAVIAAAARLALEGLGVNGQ

| Molecule | MIC (Escherichia coli [1]) | MIC (Escherichia coli [2]) | MIC (Klebsiella pneumoniae) | Activity [3] |
| --- | --- | --- | --- | --- |
| CC1(C)S[C@@H]2[C@H](NC(=O)[C@H](N)c3ccc(O)cc3)C(=O)N2[C@H]1C(=O)O [AMOXICILLIN] | > 256 µg/mL | 4 µg/mL (≈ 10.9 µM) | > 256 µg/mL |  |
| C[C@H]1[C@H](NC(=O)/C(=N\OC(C)(C)C(=O)O)c2csc(N)n2)C(=O)N1S(=O)(=O)O [AZTREONAM] | 16 µg/mL (≈ 36.7 µM) |  | > 256 µg/mL |  |
| CO/N=C(\C(=O)N[C@@H]1C(=O)N2C(C(=O)[O-])=C(C[N+]3(C)CCCC3)CS[C@H]12)c1csc(N)n1 [CEFEPIME] | 1.5 µg/mL (≈ 3.12 µM) | 0.03 µg/mL (≈ 0.0624 µM) | > 256 µg/mL |  |
| CO/N=C(\C(=O)N[C@@H]1C(=O)N2C(C(=O)O)=C(COC(C)=O)CS[C@H]12)c1csc(N)n1 [CEFOTAXIME] | 4 µg/mL (≈ 8.78 µM) | 0.06 µg/mL (≈ 0.132 µM) | > 32 µg/mL |  |
| CO[C@@]1(NC(=O)Cc2cccs2)C(=O)N2C(C(=O)O)=C(COC(N)=O)CS[C@@H]21 [CEFOXITIN] | 4 µg/mL (≈ 9.36 µM) | 2 µg/mL (≈ 4.68 µM) | 64 µg/mL (≈ 150 µM) |  |
| CC(C)(O/N=C(\C(=O)N[C@@H]1C(=O)N2C(C(=O)[O-])=C(C[n+]3ccccc3)CS[C@H]12)c1csc(N)n1)C(=O)O [CEFTAZIDIME] | 4 µg/mL (≈ 7.32 µM) | 0.06 µg/mL (≈ 0.11 µM) | > 256 µg/mL |  |
| CC(=O)OCC1=C(C(=O)O)N2C(=O)[C@@H](NC(=O)Cc3cccs3)[C@H]2SC1 [CEPHALOTHIN] | > 256 µg/mL | 1 µg/mL (≈ 2.52 µM) | > 256 µg/mL |  |
| C[C@@H](O)[C@H]1C(=O)N2C(C(=O)O)=C(S[C@@H]3CN[C@H](C(=O)Nc4cccc(C(=O)O)c4)C3)[C@H](C)[C@H]12 [ERTAPENEM] | 0.38 µg/mL (≈ 0.799 µM) | 0.03 µg/mL (≈ 0.0631 µM) | 12 µg/mL (≈ 25.2 µM) | 0.05 µmol |
| C[C@@H](O)[C@H]1C(=O)N2C(C(=O)O)=C(SCCNC=N)C[C@H]12 [IMIPENEM ANHYDROUS] | 1.5 µg/mL (≈ 5.01 µM) |  | 12 µg/mL (≈ 40.1 µM) | 0.2 µmol |
| C[C@@H](O)[C@H]1C(=O)N2C(C(=O)O)=C(S[C@@H]3CN[C@H](C(=O)N(C)C)C3)[C@H](C)[C@H]12 [MEROPENEM] | 0.38 µg/mL (≈ 0.991 µM) | 0.03 µg/mL (≈ 0.0782 µM) | 6 µg/mL (≈ 15.6 µM) | 0.06 µmol |
| CCN1CCN(C(=O)N[C@@H](C(=O)N[C@@H]2C(=O)N3[C@@H]2SC(C)(C)[C@@H]3C(=O)O)c2ccccc2)C(=O)C1=O [PIPERACILLIN] | 128 µg/mL (≈ 247 µM) | 1 µg/mL (≈ 1.93 µM) | > 256 µg/mL |  |
| CC1(C)S[C@@H]2[C@H](NC(=O)[C@H](C(=O)O)c3ccsc3)C(=O)N2[C@H]1C(=O)O [TICARCILLIN] | > 256 µg/mL | 2 µg/mL (≈ 5.2 µM) | > 256 µg/mL |  |
| CN(C)c1cc(NC(=O)CNC(C)(C)C)c(O)c2c1C[C@H]1C[C@H]3[C@H](N(C)C)C(O)=C(C(N)=O)C(=O)[C@@]3(O)C(O)=C1C2=O [TIGECYCLINE] | 0.5 µg/mL (≈ 0.854 µM) | 0.5 µg/mL (≈ 0.854 µM) | 3 µg/mL (≈ 5.12 µM) |  |
| COLISTIN | 0.38 µg/mL | 0.38 µg/mL | 128 µg/mL |  |
| GENTAMICIN | 0.064 µg/mL | 0.064 µg/mL | 1.5 µg/mL |  |
